The values that follow come from US9193719B2, “1,2,4-triazol-5-ones and analogs exhibiting anti-cancer and anti-proliferative activities” (Deciphera Pharmaceuticals, LLC, priority 2013, dated 2015).

Assay [1] deals with MDA-MB-231-luc-D3H2LN human breast carcinoma xenograft. The experiment in a line: MDA-MB-231 xenograft study. Format: in vivo, mouse. Conditions: orally dosed at 15 mpk twice daily. The protocol:
MDA-MB-231 Xenograft Study
To evaluate the in vivo anti-cancer activity compounds of Formula I, a MDA-MB-231-luc-D3H2LN human breast carcinoma xenograft was employed. Briefly, MDA-MB-231-luc-D3H2LN cells were obtained from Xenogen and expanded in Minimal Essential Media (MEM) with EBSS which was modified with 1% L-glutamine and supplemented with 10% FBS, 1% PSG, 1% non-essential amino acids, and 1% sodium pyruvate. The growth environment was maintained in an incubator with a 5% CO2 atmosphere at 37° C. Cells were harvested and re-suspended using 50% serum-free media and 50% Matrigel® to generate a stock concentration of 5×10^6 cells/mL.
Six to 7 week old female C.B-17/IcrHsd-PrkdcscidLystbg mice were injected with 200 μL of cell suspension subcutaneously, just below the right axilla. All procedures carried out in this experiment were conducted in compliance with all the laws, regulations and guidelines of the National Institutes of Health (NIH). Treatment began when the mean tumor burden is approximately 150 mg. All mice were dosed with test compound by oral gavage. Body weights and tumor measurements were recorded three times weekly. […] Images were analyzed using Living Image (Xenogen, Alameda, Calif.) software. […]

For assay [2], the system named is phospho-FMS in THP-1 cells. The experiment in a line: Phospho-FMS ELISA assay in THP-1 cells. Type of assay: cell-based. Particulars: Homo sapiens, 4 h compound, M-CSF stimulation 5 min, read-out: pFMS inhibition in THP-1 cells. The protocol: THP-1 cells (catalog #TIB-202) were obtained from the ATCC. Briefly, cells were grown in RPMI 1640 supplemented with 10% characterized fetal bovine serum, 1% sodium pyruvate, 1% Penicillin-Streptomycin-Glutamine (PSG) and 55 uM 2-mercaptoethanol (Invitrogen, Carlsbad, Calif.) at 37 degrees Celsius, 5% CO2, 95% humidity. Cells were allowed to expand until reaching 70-95% confluency at which point they were subcultured or harvested for assay use.
A serial dilution of test compound was diluted 1:100 in assay medium (RPMI 1640 supplemented with 10% characterized fetal bovine serum) in a 96 well black clear bottom plate (Corning, Corning, N.Y.). In a separate 96 well black clear bottom plate, one hundred and fifty thousand THP-1 cells were added per well in 100 μL in assay medium. Fifty microliters of diluted compound was then added to the cells. Plates were incubated for 4 hours at 37 degrees Celsius, 5% CO2, 95% humidity. At the end of the incubation period, cells were stimulated with 50 μL of a 100 nM solution of recombinant human M-CSF (catalog #216-MC, R & D Systems, Minneapolis, Minn.) in assay medium and the plate was incubated for 5 minutes at 37 degrees Celsius, 5% CO2, 95% humidity. Lysates were prepared and used to perform the phospho-FMS ELISA as described by the manufacturer (catalog #DYC3268, R & D Systems, Minneapolis, Minn.). GraphPad Prism was used to calculate IC50 values obtained from data generated from the ELISA assay.

The target of assay [3] is T1, unphosphorylated c-FMS kinase (uFMS, Seq. ID no. 1) (Homo sapiens, UniProt P07333).
T1 construct: purchased Millipore
T1 sequence (P07333 538-972): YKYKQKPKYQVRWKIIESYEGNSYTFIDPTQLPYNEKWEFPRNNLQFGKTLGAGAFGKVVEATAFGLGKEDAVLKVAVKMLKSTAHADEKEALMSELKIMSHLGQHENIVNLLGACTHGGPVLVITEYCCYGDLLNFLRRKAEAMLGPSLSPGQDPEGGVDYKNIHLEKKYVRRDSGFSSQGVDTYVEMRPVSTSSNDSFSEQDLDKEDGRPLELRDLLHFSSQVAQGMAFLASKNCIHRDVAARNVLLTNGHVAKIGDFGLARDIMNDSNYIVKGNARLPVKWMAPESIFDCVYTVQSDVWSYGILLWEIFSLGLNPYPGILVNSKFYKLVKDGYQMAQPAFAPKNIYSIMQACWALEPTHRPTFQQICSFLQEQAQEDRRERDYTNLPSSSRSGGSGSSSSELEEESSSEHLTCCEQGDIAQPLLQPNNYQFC
Kind of assay: uFMS kinase enzymatic assay (pyruvate kinase/lactate dehydrogenase coupled). Format: biochemical. Particulars: ATP 500 μM, rate 3 to 4 h. In outline:
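Coupled PK/LDH assay following NADH oxidation at A340 with 10 nM unphosphorylated FMS, 1 mg/mL polyE4Y, 500 μM ATP in 90 mM Tris pH 7.5, 0.2% octyl-glucoside, 1% DMSO. Read continuously 4 h at 30 °C; rate from 3–4 h window versus no-compound control; IC50 from percent-inhibition series.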

As for `Cc1nc(-n2nc(C(C)(C)C)[nH]c2=O)ccc1Oc1ccnc(-c2cnn(C)c2)c1` [Example 7, 3-(tert-butyl)-1-(6-methyl-5-((2-(1-methyl-1H-pyrazol-4-yl)pyridin-4-yl)oxy)pyridin-2-yl)-1H-1,2,4-triazol-5(4H)-one], the tumor growth inhibition in assay [1] stood at 39%. In addition, the IC50 is 10 to 100 nM in assay [2] and at most 10 nM in assay [3].

Turning to `Cc1nc(-n2nc(C3CCOCC3)[nH]c2=O)ccc1Oc1ccnc(-c2cnn(C)c2)c1` [Example 20, 1-(6-methyl-5-((2-(1-methyl-1H-pyrazol-4-yl)pyridin-4-yl)oxy)pyridin-2-yl)-3-(tetrahydro-2H-pyran-4-yl)-1H-1,2,4-triazol-5(4H)-one], the IC50 was 100 to 1000 nM in assay [2] and at most 10 nM in assay [3].

In the case of `Cc1nc(-n2nc(CC(C)C)[nH]c2=O)ccc1Oc1ccnc(-c2cnn(C)c2)c1` [Example 22, 3-isobutyl-1-(6-methyl-5-((2-(1-methyl-1H-pyrazol-4-yl)pyridin-4-yl)oxy)pyridin-2-yl)-1H-1,2,4-triazol-5(4H)-one], the IC50 in assay [2] and in assay [3] was at most 10 nM each time.

On to `CCC(C)(C)c1nn(-c2ccc(Oc3ccnc(-c4cnn(C)c4)c3)c(C)n2)c(=O)[nH]1` [Example 25, 1-(6-methyl-5-((2-(1-methyl-1H-pyrazol-4-yl)pyridin-4-yl)oxy)pyridin-2-yl)-3-(tert-pentyl)-1H-1,2,4-triazol-5(4H)-one], for which the IC50 was 10 to 100 nM in assay [2] and at most 10 nM in assay [3].

With `Cc1nc(-n2nc(C3(C)CC3)[nH]c2=O)ccc1Oc1ccnc(-c2cnn(C)c2)c1` [Example 27, 1-(6-methyl-5-((2-(1-methyl-1H-pyrazol-4-yl)pyridin-4-yl)oxy)pyridin-2-yl)-3-(1-methylcyclopropyl)-1H-1,2,4-triazol-5(4H)-one], the IC50 in assay [2] is 10 to 100 nM; in assay [3], at most 10 nM.

`Cc1nc(-n2nc(C(C)(C)C)[nH]c2=O)ccc1Oc1ccnc(NC(=O)N(C)C)c1` [Example 30, 3-(4-((6-(3-(tert-butyl)-5-oxo-4,5-dihydro-1H-1,2,4-triazol-1-yl)-2-methylpyridin-3-yl)oxy)pyridin-2-yl)-1,1-dimethylurea]: the IC50 in assay [2] lay in the range of 100 to 1000 nM; in assay [3], 10 to 100 nM.

Take `Cc1cc(-n2nc(C(C)(C)C)[nH]c2=O)ncc1Oc1ccnc(-c2cnn(C)c2)c1` [Example 31, 3-(tert-butyl)-1-(4-methyl-5-((2-(1-methyl-1H-pyrazol-4-yl)pyridin-4-yl)oxy)pyridin-2-yl)-1H-1,2,4-triazol-5(4H)-one]: the figures for the IC50 in assay [2] and in assay [3] were 10 to 100 nM and at most 10 nM, respectively.

Turning to `Cc1cc(-n2nc(C(C)(C)C)[nH]c2=O)nc(C)c1Oc1ccnc(-c2cnn(C)c2)c1` [Example 33, 3-(tert-butyl)-1-(4,6-dimethyl-5-((2-(1-methyl-1H-pyrazol-4-yl)pyridin-4-yl)oxy)pyridin-2-yl)-1H-1,2,4-triazol-5(4H)-one], the IC50 in assay [2] and in assay [3] was 10 to 100 nM throughout.

Turning to `Cc1nc(-n2nc(CC(C)(C)C)[nH]c2=O)ccc1Oc1ccnc(-c2cnn(C)c2)c1` [Example 36, 1-(6-methyl-5-((2-(1-methyl-1H-pyrazol-4-yl)pyridin-4-yl)oxy)pyridin-2-yl)-3-neopentyl-1H-1,2,4-triazol-5(4H)-one], the IC50 was 10 to 100 nM in assay [2] and at most 10 nM in assay [3].

Take `Cc1nc(-n2nc(C3CCC3)[nH]c2=O)ccc1Oc1ccnc(-c2cnn(C)c2)c1` [Example 37, 3-cyclobutyl-1-(6-methyl-5-((2-(1-methyl-1H-pyrazol-4-yl)pyridin-4-yl)oxy)pyridin-2-yl)-1H-1,2,4-triazol-5(4H)-one]: the IC50 in assay [2] and in assay [3] was at most 10 nM throughout.

On to `CCn1cc(-c2cc(Oc3ccc(-n4nc(C(C)(C)C)[nH]c4=O)nc3C)ccn2)cn1` [Example 38, 3-(tert-butyl)-1-(5-((2-(1-ethyl-1H-pyrazol-4-yl)pyridin-4-yl)oxy)-6-methylpyridin-2-yl)-1H-1,2,4-triazol-5(4H)-one], for which the IC50 in assay [2] is 100 to 1000 nM; in assay [3], at most 10 nM.

Take `Cc1nc(-n2nc(C(C)(C)C)[nH]c2=O)ccc1Oc1ccnc(-c2cnco2)c1` [Example 39, 3-(tert-butyl)-1-(6-methyl-5-((2-(oxazol-5-yl)pyridin-4-yl)oxy)pyridin-2-yl)-1H-1,2,4-triazol-5(4H)-one]: the IC50 is 100 to 1000 nM in assay [2] and 10 to 100 nM in assay [3].

On to `Cc1nc(-n2nc(C3(C(F)(F)F)CCC3)[nH]c2=O)ccc1Oc1ccnc(-c2cnn(C)c2)c1` [Example 43, 1-(6-methyl-5-((2-(1-methyl-1H-pyrazol-4-yl)pyridin-4-yl)oxy)pyridin-2-yl)-3-(1-(trifluoromethyl)cyclobutyl)-1H-1,2,4-triazol-5(4H)-one], for which the figures for the IC50 in assay [2] and in assay [3] were 100 to 1000 nM and at most 10 nM, respectively.

For `COCC(C)(C)c1nn(-c2ccc(Oc3ccnc(-c4cnn(C)c4)c3)c(C)n2)c(=O)[nH]1` [Example 46, 3-(1-methoxy-2-methylpropan-2-yl)-1-(6-methyl-5-((2-(1-methyl-1H-pyrazol-4-yl)pyridin-4-yl)oxy)pyridin-2-yl)-1H-1,2,4-triazol-5(4H)-one], the IC50 was in the range of 100 to 1000 nM in assay [2] and 10 to 100 nM in assay [3].

For the compound `Cc1nc(-n2nc(C(C)(C)C)[nH]c2=O)ccc1Oc1cc(-c2cnn(C)c2)ncn1` [Example 47, 3-(tert-butyl)-1-(6-methyl-5-((6-(1-methyl-1H-pyrazol-4-yl)pyrimidin-4-yl)oxy)pyridin-2-yl)-1H-1,2,4-triazol-5(4H)-one], the IC50 in assay [2] and in assay [3] was 10 to 100 nM in each case.

For `Cc1nc(-n2cc(C(C)(C)C)[nH]c2=O)ccc1Oc1ccnc(-c2cnn(C)c2)c1` [Example 48, 4-(tert-butyl)-1-(6-methyl-5-((2-(1-methyl-1H-pyrazol-4-yl)pyridin-4-yl)oxy)pyridin-2-yl)-1H-imidazol-2(3H)-one], the IC50 in assay [2] and in assay [3] was 10 to 100 nM each time.

Turning to `Cc1nc(-n2nc(C(C)(C)C)oc2=O)ccc1Oc1ccnc(-c2cnn(C)c2)c1` [Example 49, 5-(tert-butyl)-3-(6-methyl-5-((2-(1-methyl-1H-pyrazol-4-yl)pyridin-4-yl)oxy)pyridin-2-yl)-1,3,4-oxadiazol-2(3H)-one], the IC50 in assay [2] and in assay [3] was 10 to 100 nM each time.
